Assay results from patent publication EP0569598A1, “BENZOXAZINONE DERIVATIVE” (JAPAN TOBACCO INC., priority 1991, dated 1993).

Assays:
[1] = biological target: T1, human sputum elastase (HSE) (Homo sapiens, UniProt P08246); test: HSE inhibitory activity (synthetic substrate, pNA release); assay type: biochemical; conditions: pH 7.0; HSE 10 nM, substrate 0.25 mM; read-out: IC₅₀ value HSE
T1 construct: human sputum elastase (HSE); purchased Sigma Inc
T1 sequence (P08246 30-267): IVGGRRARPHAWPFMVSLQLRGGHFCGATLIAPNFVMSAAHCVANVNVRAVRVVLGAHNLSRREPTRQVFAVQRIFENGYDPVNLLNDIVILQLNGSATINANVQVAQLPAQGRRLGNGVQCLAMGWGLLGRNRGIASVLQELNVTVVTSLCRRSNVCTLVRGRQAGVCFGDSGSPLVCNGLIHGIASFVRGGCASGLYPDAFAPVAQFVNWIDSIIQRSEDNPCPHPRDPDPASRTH
Description: Activities of the Benzoxazine derivatives of the present invention against human leukocyte elastase (HLE), human sputum elastase (HSE), human cathepsin G (HCG), bovine pancreatic α-chmotrypsin (CYT) and bovine pancreatic trypsin (TRY) were measured by the following method.
A test compound was dissolved in DMSO (for fluorometry) and prepared various concentration of the solution. To each concentration was added 2-fold volume of 0.2M Tris-HCl (pH8.6), thereby obtaining a test solution. Synthetic substrate (Funakoshi, L-1335) was dissolved in DMSO and 2-volume of 0.2M Tris-HCl (pH8.6) was added thereto, thereby obtaining a substrate solution. The reaction was performed using a microplate having 96 wells (Nunk). Six-time reactions were repeated for each concentration. One handred and forty µl of an enzyme solution containing 0.2M Tris-HCl (pH8.6), 30 µl of a test solution and 30 µl of a substrate solution per well of the microplate were respectively pre-incubated at 37°C for 10 minutes. After completion of the incubation, the enzyme solution was mixed with the test sample and incubated for 10 minutes and then the substrate solution was added to perform an enzyme reaction. The absorbance of released P-nitroanilide (PNA) was measured at the wave length of 405 nm by means of a microplate reader (MTP-100; CORONA), thereby determining the substrate decomposition. […]

[2] = test system: neutrophiles from the human peripheral blood; test: Human neutrophile chemotaxis suppressing activity (fMLP, chemotaxis chamber); assay type: cell-based; conditions: Concentration 12.5 µM, 10-⁷M fMLP, one hour at 37°C
Description: The neutrophile fraction (60% percoal fraction having neutrophile purity of 90% or more) was taken from the human peripheral blood by means of percoal density gradient centrifugation at 2300 rpm for 20 minutes.
An intercell having a pore diameter of 5 µm, containing 8 x 10⁵ of neutrophiles and the compound of the present invention adjusted in various concentrations was placed in each well of a chemotaxis chamber (KURABO), in which has been added 1300 µl of a medium containing 10-⁷M of formylmethionyl-leucyl-phenylalanine (fMLP), which is a neutrophile chemotaxis factor. After incubating for one hour at 37°C in an incubator containing 5% carbon dioxide, the number of cells migrating from the upper side of the intercell membrane into the lower side of the membrane in the chamber was counted by the following method. That is, the lower side surface of the intercell membrane was washed with PBS for 4 times and fixed with methanol and dyed with hematoxylin-eosin solution. The membrane was removed from the intercell and placed on a slide, dried in air, followed by sealing with Canada balsam. The cell number was microscopically counted in 5 visual fields. Taking average number of the five fields, the average was employed as the number of migrating cells. The value subtracting the migrating cell number in a control experiment containing no fMLP from the cell number in an experiment containing no the compound of the present invention was regarded as 100, the chemotaxis suppressing activity was determined as the following formula: Neutrophilic chemotaxis suppressing activity (%) [formula] = 100 - A/B x 100 [formula] = 100 - (C - D)/(E-D) x 100 [formula] Where: • A: chemotaxis measured in the experiment containing the compound of the present invention; • B: chemotaxis measured in the experiment not containing the compound of the present invention • C: the number of migrating cells measured in the experiment containing both the compound of the present invention and fMLP. • D: the number of migrating cells in the experiment containing neither the compound of the present invention nor fMLP. • E: the number of migrating cells in the experiment containing only fMLP.

- IC50 [1]: 280 nM
Structure (SMILES): Cc1cccc2nc([C@@H](NC(=O)OCC(c3ccccc3)c3ccccc3)C(C)C)oc(=O)c12 [Compound 1, 2-[1(S)-[(2,2-diphenylethoxy-carbonyl)amino]-2-methylpropyl]-5-methyl-4H-3,1-benzoxazin-4-one]
- Chemotaxis ([2]; experiment without compound regarded as 100): 4.7
- activity at 12.5 µM ([2]; Homo sapiens, 1 h): 95.3%
